From ChEMBL document CHEMBL1155826, “Refinement of histamine H3 ligands pharmacophore model leads to a new class of potent and selective naphthalene inverse agonists” (Bioorg Med Chem Lett, 2008)

Legend:
Histamine H3 receptor [1] = target: T1, Histamine H3 receptor (Homo sapiens, UniProt Q9Y5N1); experiment: Displacement of [3H]RAMH from human histamine H3 receptor expressed in CHO cells at 3 uM; assay type: cell-based
Histamine H3 receptor [2] = target: T1, Histamine H3 receptor; experiment: Displacement of [3H]RAMH from human histamine H3 receptor expressed in CHO cells; assay type: cell-based
Histamine H3 receptor [3] = target: T1, Histamine H3 receptor; experiment: Inverse agonist activity at human histamine H3 receptor expressed in CHO cells by GTPgammaS assay; assay type: functional, cell-based
[4] = target: Histamine H1 receptor (Homo sapiens) (UniProt P35367); experiment: Inhibition of histamine H1 receptor at 3 uM
[5] = target: Histamine H2 receptor (Homo sapiens) (UniProt P25021); experiment: Inhibition of histamine H2 receptor at 3 uM
[6] = target: Histamine H4 receptor (Homo sapiens) (UniProt Q9H3N8); experiment: Inhibition of histamine H4 receptor at 3 uM
Sequence of Histamine H4 receptor (Homo sapiens) (Q9H3N8 whole entry): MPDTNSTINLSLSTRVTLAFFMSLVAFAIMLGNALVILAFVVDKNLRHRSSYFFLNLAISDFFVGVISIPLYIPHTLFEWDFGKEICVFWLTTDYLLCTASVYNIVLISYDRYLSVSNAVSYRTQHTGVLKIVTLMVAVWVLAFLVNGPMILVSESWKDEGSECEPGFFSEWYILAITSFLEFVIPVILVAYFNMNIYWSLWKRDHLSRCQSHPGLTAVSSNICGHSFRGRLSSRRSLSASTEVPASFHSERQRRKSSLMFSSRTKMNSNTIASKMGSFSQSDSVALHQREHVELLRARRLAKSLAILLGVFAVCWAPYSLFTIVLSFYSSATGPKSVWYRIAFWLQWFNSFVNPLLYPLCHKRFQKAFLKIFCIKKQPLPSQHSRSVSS

T1 sequence (Q9Y5N1 whole entry): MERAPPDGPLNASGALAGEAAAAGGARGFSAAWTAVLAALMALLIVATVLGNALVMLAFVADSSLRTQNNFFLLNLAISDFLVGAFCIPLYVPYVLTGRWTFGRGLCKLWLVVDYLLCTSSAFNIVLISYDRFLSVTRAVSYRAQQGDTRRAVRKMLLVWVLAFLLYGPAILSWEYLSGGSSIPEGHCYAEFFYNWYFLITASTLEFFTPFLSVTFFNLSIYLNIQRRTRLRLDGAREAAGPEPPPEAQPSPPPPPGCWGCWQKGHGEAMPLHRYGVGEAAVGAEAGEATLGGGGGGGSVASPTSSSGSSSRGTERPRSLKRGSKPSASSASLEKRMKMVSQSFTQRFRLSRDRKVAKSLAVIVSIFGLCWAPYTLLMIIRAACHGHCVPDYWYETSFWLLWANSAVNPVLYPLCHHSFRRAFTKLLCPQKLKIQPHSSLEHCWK
Sequence of Histamine H2 receptor (Homo sapiens) (P25021 whole entry): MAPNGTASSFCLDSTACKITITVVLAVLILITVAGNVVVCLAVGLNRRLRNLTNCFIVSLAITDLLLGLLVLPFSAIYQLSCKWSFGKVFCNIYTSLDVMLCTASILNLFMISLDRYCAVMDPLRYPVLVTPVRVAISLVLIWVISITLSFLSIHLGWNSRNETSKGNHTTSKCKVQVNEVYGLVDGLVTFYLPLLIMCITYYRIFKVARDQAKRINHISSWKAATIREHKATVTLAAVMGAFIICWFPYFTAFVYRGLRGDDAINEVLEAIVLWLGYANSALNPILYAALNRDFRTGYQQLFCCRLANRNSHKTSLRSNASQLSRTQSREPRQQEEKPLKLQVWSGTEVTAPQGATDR
Sequence of Histamine H1 receptor (Homo sapiens) (P35367 whole entry): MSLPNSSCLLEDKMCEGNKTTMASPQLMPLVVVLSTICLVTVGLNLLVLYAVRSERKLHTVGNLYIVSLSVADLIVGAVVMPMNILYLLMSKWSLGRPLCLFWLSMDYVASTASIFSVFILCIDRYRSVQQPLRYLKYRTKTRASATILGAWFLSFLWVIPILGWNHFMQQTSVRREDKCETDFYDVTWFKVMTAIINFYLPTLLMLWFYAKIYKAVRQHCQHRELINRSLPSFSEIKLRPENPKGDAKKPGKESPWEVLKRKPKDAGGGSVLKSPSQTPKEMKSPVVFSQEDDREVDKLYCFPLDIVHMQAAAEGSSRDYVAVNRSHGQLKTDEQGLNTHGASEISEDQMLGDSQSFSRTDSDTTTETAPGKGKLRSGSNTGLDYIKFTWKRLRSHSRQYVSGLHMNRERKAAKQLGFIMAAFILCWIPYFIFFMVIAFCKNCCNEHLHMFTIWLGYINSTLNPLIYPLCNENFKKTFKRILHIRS

| SMILES | inhibition (Histamine H3 receptor [1]) | Ki (Histamine H3 receptor [2]) | further results |
| --- | --- | --- | --- |
| CC(C)N1CCC(Nc2ccc3cc(C(=O)NC4CCCCC4)ccc3c2)CC1 | 57% |  |  |
| O=C(c1ccc2cc(OCCCN3CCCCC3)ccc2c1)N1CCCC1 |  | 4 nM |  |
| O=C(c1cccc2cc(OCCCN3CCCCC3)ccc12)N1CCCC1 | 58% |  |  |
| CC(C)N1CCC(Oc2ccc3c(C(=O)N4CCCC4)cccc3c2)CC1 | 53% |  |  |
| CC(C)N1CCC(Nc2ccc3cc(C(=O)N4CCCC4)ccc3c2)CC1 | 45% |  |  |
| CC(C)N1CCC(Oc2ccc3cc(C(=O)NC4CCCCC4)ccc3c2)CC1 |  | 87 nM | EC50 (Histamine H3 receptor [3]): 21 nM; inhibition [4]: < 25%; inhibition [5]: < 25%; inhibition [6]: < 25% |
| CC(C)N1CCC(Oc2ccc3cc(C(=O)N4CCCC4)ccc3c2)CC1 |  | 57 nM |  |
| CC(C)N1CCC(Nc2ccc3cc(C(=O)N4CCOCC4)ccc3c2)CC1 | 61% |  |  |
| CC(C)N1CCC(Oc2ccc3c(C(=O)NC4CCCCC4)cccc3c2)CC1 | 52% |  |  |
| C[C@H]1CC[C@H](C)N1CCCOc1ccc(-c2ccc(C(=O)N3CCOCC3)cc2)cc1 (single isomer, unassigned) [A-349,821] |  | 12 nM |  |
| c1ccc2c(Nc3ccc(OCCCN4CCCCC4)cc3)ccnc2c1 |  | 0.5 nM |  |
